# Results published in patent publication US4398029A, “Quinoline carboxylic acid derivatives and process for the preparation” (Kyorin Seiyaku Kabushiki Kaisha, priority 1981, dated 1983).
# Structures can show the parent of a compound that is named as a salt.
# Assays:
# S. aureus Terajima = test: Antibacterial activity (MIC), standard agar dilution streak method; type: cell-based, Staphylococcus aureus; conditions: S. aureus Terajima
# Protocol: (§1) The antibacterial activities of the compounds of the present invention were assayed by the standard agar dilution streak method against Gram-positive and Gram-negative bacteria [Chemotherapy, 22, 1126 (1974)].
# E. coli ATCC 10536 = test: as above; type: cell-based, Escherichia coli
# Protocol: as §1
# Shigella sonnei IID 969 = test: microbe, parasite or virus in culture; type: cell-based
# Protocol: as §1
# P. aeruginosa IFO 12689 = test: Antibacterial activity (MIC), standard agar dilution streak method; type: cell-based, Pseudomonas aeruginosa
# Protocol: as §1
# [1] = test system: Citrobacter freundii IID 976; test: as above; type: cell-based
# Protocol: as §1
# Proteus vulgaris 3167 = test: as above; type: cell-based
# Protocol: as §1
# [2] = test system: Enterobacter cloacae IID 977; test: as above; type: cell-based
# Protocol: as §1
# S. epidermidis IID 866 = test: as above; type: cell-based
# Protocol: as §1
# [3] = test system: Staphylococcus aureus 209 p; test: as above; type: cell-based; conditions: Staphylococcus aureus 209 p; read-out: Minimum inhibitory concentration
# Protocol: as §1
# P. mirabilis IID 994 = test: as above; type: cell-based; conditions: Proteus mirabilis, IID994; P. mirabilis IID 994; read-out: Minimum inhibitory concentration
# Protocol: as §1
# [4] = test system: Escherichia coli NIHJ JC-2; test: as above; type: cell-based
# Protocol: as §1
# [5] = test system: Klebsiella pneumoniae IFO 3512; test: as above; type: cell-based
# Protocol: as §1
# [6] = test system: Bacillus subtilis PCI 219; test: as above; type: cell-based; conditions: PCI219
# Protocol: as §1
# [7] = test system: Yersinia enterocolitica IID 981; test: as above; type: cell-based
# Protocol: as §1
# [8] = test system: Salmonella enteritidis IID 604; test: as above; type: cell-based; conditions: Salmonella enteritidis IID 604
# Protocol: as §1
# P. morganii IID 602 = test: as above; type: cell-based
# Protocol: as §1
# [9] = test system: Acinetobacter anitratus IID 876; test: as above; type: cell-based
# Protocol: as §1
# [10] = test system: Pseudomonas aeruginosa V-1; test: as above; type: cell-based; conditions: V1; Pseudomonas aeruginosa V-1; read-out: Minimum inhibitory concentration
# Protocol: as §1
# [11] = test system: Serratia marcescens IID 618; test: as above; type: cell-based
# Protocol: as §1
# [12] = test system: Alcaligenes faecalis 0104002; test: as above; type: cell-based
# Protocol: as §1
# Pseudomonas aeruginosa = conditions: prior art statement; cited from earlier work
# gram-negative bacteria = conditions: prior art statement; cited from earlier work
# gram-positive bacteria = conditions: prior art statement; cited from earlier work
structure (smiles),measurement,setting,value
"CCn1cc(C(=O)O)c(=O)c2cc(F)c(N3CCC(N(C)C)CC3)c(F)c21 [Example 13, 1-Ethyl-6,8-difluoro-1,4-dihydro-7-(4-dimethylamino-1-piperidinyl)-4-oxoquinoline-3-carboxylic acid]",MIC,"S. aureus Terajima; Staphylococcus aureus, read-out: Minimum inhibitory concentration",0.39 µg/mL
same,MIC,"E. coli ATCC 10536; Escherichia coli, ATCC10536, read-out: Minimum inhibitory concentration",0.2 µg/mL
same,MIC,"Shigella sonnei IID 969; Shigella sonnei, IID969, Shigella sonnei IID 969, read-out: Minimum inhibitory concentration",0.1 µg/mL
same,MIC,"P. aeruginosa IFO 12689; Pseudomonas aeruginosa, IFO12689, P. aeruginosa IFO 12689, read-out: Minimum inhibitory concentration",25 µg/mL
same,MIC,"[1]; Citrobacter freundii, IID976, Citrobacter freundii IID 976, read-out: Minimum inhibitory concentration",0.39 µg/mL
same,MIC,"Proteus vulgaris 3167; Proteus vulgaris, 3167, Proteus vulgaris 3167, read-out: Minimum inhibitory concentration",0.1 µg/mL
same,MIC,"[2]; Enterobacter cloacae, IID977, Enterobacter cloacae IID 977, read-out: Minimum inhibitory concentration",3.13 µg/mL
same,MIC,"S. epidermidis IID 866; Staphylococcus epidermidis, IID866, read-out: Minimum inhibitory concentration",0.39 µg/mL
same,MIC,[3],0.39 µg/mL
same,MIC,P. mirabilis IID 994,0.39 µg/mL
same,MIC,"[4]; Escherichia coli, NIHJJC2, Escherichia coli NIHJ JC-2, read-out: Minimum inhibitory concentration",≤ 0.05 µg/mL
same,MIC,"[5]; Klebsiella pneumoniae, IFO3512, Klebsiella pneumoniae IFO 3512, read-out: Minimum inhibitory concentration",≤ 0.05 µg/mL
same,MIC,"[6]; Bacillus subtilis PCI 219, read-out: Minimum inhibitory concentration",0.1 µg/mL
same,MIC,"[7]; Yersinia enterocolitica, IID981, Yersinia enterocolitica IID 981, read-out: Minimum inhibitory concentration",0.78 µg/mL
same,MIC,"[8]; Salmonella enterica, read-out: Minimum inhibitory concentration",0.78 µg/mL
same,MIC,"P. morganii IID 602; Morganella morganii, IID602, P. morganii IID 602, read-out: Minimum inhibitory concentration",1.56 µg/mL
same,MIC,"[9]; Acinetobacter calcoaceticus, IID876, read-out: Minimum inhibitory concentration",0.78 µg/mL
same,MIC,[10],12.5 µg/mL
same,MIC,"[11]; Serratia marcescens, IID618, Serratia marcescens IID 618, read-out: Minimum inhibitory concentration",0.78 µg/mL
same,MIC,"[12]; Alcaligenes faecalis, 0104002, Alcaligenes faecalis 0104002, read-out: Minimum inhibitory concentration",6.25 µg/mL
"CCn1cc(C(=O)O)c(=O)c2cc(F)c(N3CCC(O)CC3)c(F)c21 [Example 16, 1-Ethyl-6,8-difluoro-1,4-dihydro-7-(4-hydroxy-1-piperidinyl)-4-oxoquinoline-3-carboxylic acid silver salt]",Minimum inhibitory concentration,S. aureus Terajima,0.39 µg/mL
same,Minimum inhibitory concentration,E. coli ATCC 10536,0.78 µg/mL
same,Minimum inhibitory concentration,Shigella sonnei IID 969; Shigella sonnei IID 969,0.39 µg/mL
same,Minimum inhibitory concentration,P. aeruginosa IFO 12689; P. aeruginosa IFO 12689,25 µg/mL
same,Minimum inhibitory concentration,[1]; Citrobacter freundii IID 976,1.56 µg/mL
same,Minimum inhibitory concentration,Proteus vulgaris 3167; Proteus vulgaris 3167,0.10 µg/mL
same,Minimum inhibitory concentration,[2]; Enterobacter cloacae IID 977,3.13 µg/mL
same,Minimum inhibitory concentration,S. epidermidis IID 866,0.39 µg/mL
same,MIC,[3],0.2 µg/mL
same,MIC,P. mirabilis IID 994,0.39 µg/mL
same,Minimum inhibitory concentration,[4]; Escherichia coli NIHJ JC-2,0.78 µg/mL
same,Minimum inhibitory concentration,[5]; Klebsiella pneumoniae IFO 3512,0.10 µg/mL
same,Minimum inhibitory concentration,[6]; Bacillus subtilis,≤ 0.05 µg/mL
same,Minimum inhibitory concentration,[7]; Yersinia enterocolitica IID 981,1.56 µg/mL
same,Minimum inhibitory concentration,[8],1.56 µg/mL
same,Minimum inhibitory concentration,P. morganii IID 602; P. morganii IID 602,1.56 µg/mL
same,Minimum inhibitory concentration,[9],1.56 µg/mL
same,MIC,[10],3.13 µg/mL
same,Minimum inhibitory concentration,[11]; Serratia marcescens IID 618,3.13 µg/mL
same,Minimum inhibitory concentration,[12]; Alcaligenes faecalis 0104002,3.13 µg/mL
CCn1cc(C(=O)O)c(=O)c2ccc(C)nc21 [nalidixic acid],activities against Pseudomonas aeruginosa,Pseudomonas aeruginosa,weak activities
same,effectiveness in the therapy of infections due to gram-negative bacteria,gram-negative bacteria,highly effective
same,activities against most gram-positive bacteria,gram-positive bacteria,weak activities
CCn1cc(C(=O)O)c(=O)c2cnc(N3CCNCC3)nc21 [pipemidic acid],activities against Pseudomonas aeruginosa,Pseudomonas aeruginosa,weak activities
same,effectiveness in the therapy of infections due to gram-negative bacteria,gram-negative bacteria,highly effective
same,activities against most gram-positive bacteria,gram-positive bacteria,weak activities
CCn1cc(C(=O)O)c(=O)c2cnc(N3CCCC3)nc21 [piromidic acid],activities against Pseudomonas aeruginosa,Pseudomonas aeruginosa,weak activities
same,effectiveness in the therapy of infections due to gram-negative bacteria,gram-negative bacteria,highly effective
same,activities against most gram-positive bacteria,gram-positive bacteria,weak activities
